Measured values published in patent US8822517B2, “Arylosulfonamides for the treatment of CNS diseases” (Adamed SP. Z O.O., priority 2010, dated 2014).

Key:
[1] = biological target: T1, serotonine transporter (SERT) receptor (Homo sapiens, UniProt P31645); experiment: Binding assay SERT (h), [3H]imipramine, CHO cells; conditions: read-out: SERT [%]
T1 construct: expressed in transfected cells; host or cells: CHO cells
How it was run: (§1)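 Compounds tested at a single 1×10^−6 M concentration against the listed radioligands; bound label counted by scintillation, with non-specific binding defined by excess unlabelled ligand and subtracted from total.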

adrenergic α1 receptor = experiment: Binding assay α1 (non-selective), [3H]prazosin, rat cerebral cortex; conditions: percent inhibition of control specific binding; compounds tested at 1×10^−6 M
How it was run: as §1

dopaminergic D3 receptor = dopaminergic D3 receptor (Homo sapiens, UniProt P35462); experiment: Binding assay D3 (h), [3H]methyl-spiperone, CHO cells; design: expressed in transfected cells; host or cells: CHO cells; conditions: read-out: D3 [%]
How it was run: as §1

[2] = biological target: serotoninergic 5-HT6 receptor (Homo sapiens, UniProt P50406); experiment: Binding assay 5-HT6 (h), [3H]LSD, CHO cells; design: expressed in transfected cells; host or cells: CHO cells; conditions: read-out: 5-HT6
How it was run: as §1

[3] = biological target: serotoninergic 5-HT7 receptor (Homo sapiens, UniProt P34969); experiment: Binding assay 5-HT7 (h), [3H]LSD, CHO cells; design: expressed in transfected cells; host or cells: CHO cells; conditions: read-out: 5-HT7
How it was run: as §1

dopaminergic D2 receptor = dopaminergic D2 receptor (Homo sapiens, UniProt P14416); experiment: Binding assay D2S (h), [3H]methyl-spiperone, HEK-293 cells; design: expressed in transfected cells; host or cells: HEK-293 cells; conditions: read-out: D2 [%]
How it was run: as §1

[4] = biological target: T2, serotoninergic 5-HT1A receptor (Homo sapiens, UniProt P08908); experiment: Binding assay 5-HT1A (h), [3H]8-OH-DPAT, HEK-293 cells; design: expressed in transfected cells; host or cells: HEK-293 cells; conditions: read-out: 5-HT1A
T2 sequence (P08908 1-422): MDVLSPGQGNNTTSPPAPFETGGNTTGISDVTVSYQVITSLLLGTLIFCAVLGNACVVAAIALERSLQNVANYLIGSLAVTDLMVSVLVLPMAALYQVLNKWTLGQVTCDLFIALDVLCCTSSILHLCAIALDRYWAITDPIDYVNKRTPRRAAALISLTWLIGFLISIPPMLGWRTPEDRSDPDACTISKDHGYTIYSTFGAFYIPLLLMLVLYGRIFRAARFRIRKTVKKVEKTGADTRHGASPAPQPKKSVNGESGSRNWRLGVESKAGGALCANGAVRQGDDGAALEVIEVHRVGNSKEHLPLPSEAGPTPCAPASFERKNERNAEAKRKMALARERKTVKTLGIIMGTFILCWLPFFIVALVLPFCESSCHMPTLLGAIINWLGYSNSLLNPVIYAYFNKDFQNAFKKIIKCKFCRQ
How it was run: as §1

[5] = biological target: serotoninergic 5-HT2A receptor (Homo sapiens, UniProt P28223); experiment: Binding assay 5-HT2A (h), [3H]ketanserin, HEK-293 cells; design: expressed in transfected cells; host or cells: HEK-293 cells; conditions: read-out: 5-HT2A
How it was run: as §1

Sequence of dopaminergic D2 receptor (P14416 1-414 isoform P14416-2): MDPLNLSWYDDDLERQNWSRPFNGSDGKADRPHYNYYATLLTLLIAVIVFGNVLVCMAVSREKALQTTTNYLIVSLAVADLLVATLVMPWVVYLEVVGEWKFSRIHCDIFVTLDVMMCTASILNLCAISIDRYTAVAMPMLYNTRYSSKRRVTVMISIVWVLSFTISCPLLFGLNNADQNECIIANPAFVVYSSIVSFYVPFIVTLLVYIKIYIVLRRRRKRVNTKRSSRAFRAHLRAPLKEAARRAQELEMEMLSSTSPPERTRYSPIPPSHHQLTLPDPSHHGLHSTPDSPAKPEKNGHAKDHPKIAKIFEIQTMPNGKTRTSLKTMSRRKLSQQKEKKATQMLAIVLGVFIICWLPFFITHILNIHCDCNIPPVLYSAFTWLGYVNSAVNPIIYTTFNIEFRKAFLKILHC
Sequence of serotoninergic 5-HT2A receptor (P28223 whole entry): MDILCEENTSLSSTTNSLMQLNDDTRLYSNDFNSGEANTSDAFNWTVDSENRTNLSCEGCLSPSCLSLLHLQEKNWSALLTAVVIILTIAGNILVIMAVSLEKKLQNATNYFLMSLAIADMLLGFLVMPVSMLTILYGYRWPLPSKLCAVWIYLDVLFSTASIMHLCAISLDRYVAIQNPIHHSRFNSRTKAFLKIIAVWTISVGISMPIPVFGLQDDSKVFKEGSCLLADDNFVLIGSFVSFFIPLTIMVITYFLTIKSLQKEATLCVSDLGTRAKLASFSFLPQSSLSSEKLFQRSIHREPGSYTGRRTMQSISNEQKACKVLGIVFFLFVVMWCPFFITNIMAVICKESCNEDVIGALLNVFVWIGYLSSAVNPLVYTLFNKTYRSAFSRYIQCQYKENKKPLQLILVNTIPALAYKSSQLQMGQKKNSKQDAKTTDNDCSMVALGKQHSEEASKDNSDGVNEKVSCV
Sequence of serotoninergic 5-HT6 receptor (P50406 whole entry): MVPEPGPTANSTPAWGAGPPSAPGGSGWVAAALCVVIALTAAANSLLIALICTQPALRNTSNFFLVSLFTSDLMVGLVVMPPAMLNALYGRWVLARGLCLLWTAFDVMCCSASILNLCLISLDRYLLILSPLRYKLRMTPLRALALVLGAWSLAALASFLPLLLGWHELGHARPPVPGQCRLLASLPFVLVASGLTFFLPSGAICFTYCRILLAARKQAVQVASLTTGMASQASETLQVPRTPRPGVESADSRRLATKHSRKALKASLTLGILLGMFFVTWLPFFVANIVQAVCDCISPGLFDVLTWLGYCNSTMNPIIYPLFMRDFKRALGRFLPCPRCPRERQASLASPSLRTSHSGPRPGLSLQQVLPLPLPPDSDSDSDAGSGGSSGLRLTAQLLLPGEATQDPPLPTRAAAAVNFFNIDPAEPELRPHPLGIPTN
T1 sequence (P31645 whole entry): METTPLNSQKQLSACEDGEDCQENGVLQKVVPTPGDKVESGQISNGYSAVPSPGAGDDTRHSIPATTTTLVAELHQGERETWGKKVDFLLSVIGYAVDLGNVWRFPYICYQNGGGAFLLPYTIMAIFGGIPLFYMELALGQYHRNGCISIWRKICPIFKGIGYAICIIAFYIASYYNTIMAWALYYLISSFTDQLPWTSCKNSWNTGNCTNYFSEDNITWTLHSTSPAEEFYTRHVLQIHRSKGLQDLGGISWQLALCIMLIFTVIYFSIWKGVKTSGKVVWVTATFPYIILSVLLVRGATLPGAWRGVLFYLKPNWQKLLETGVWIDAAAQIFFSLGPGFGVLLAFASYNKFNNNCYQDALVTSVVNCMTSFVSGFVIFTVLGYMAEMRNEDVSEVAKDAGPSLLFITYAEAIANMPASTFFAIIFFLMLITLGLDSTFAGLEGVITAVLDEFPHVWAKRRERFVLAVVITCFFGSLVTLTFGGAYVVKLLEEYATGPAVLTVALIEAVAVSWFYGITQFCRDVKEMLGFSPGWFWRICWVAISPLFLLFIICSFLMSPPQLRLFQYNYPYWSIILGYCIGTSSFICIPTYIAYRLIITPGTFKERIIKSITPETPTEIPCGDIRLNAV
Sequence of serotoninergic 5-HT7 receptor (P34969 whole entry): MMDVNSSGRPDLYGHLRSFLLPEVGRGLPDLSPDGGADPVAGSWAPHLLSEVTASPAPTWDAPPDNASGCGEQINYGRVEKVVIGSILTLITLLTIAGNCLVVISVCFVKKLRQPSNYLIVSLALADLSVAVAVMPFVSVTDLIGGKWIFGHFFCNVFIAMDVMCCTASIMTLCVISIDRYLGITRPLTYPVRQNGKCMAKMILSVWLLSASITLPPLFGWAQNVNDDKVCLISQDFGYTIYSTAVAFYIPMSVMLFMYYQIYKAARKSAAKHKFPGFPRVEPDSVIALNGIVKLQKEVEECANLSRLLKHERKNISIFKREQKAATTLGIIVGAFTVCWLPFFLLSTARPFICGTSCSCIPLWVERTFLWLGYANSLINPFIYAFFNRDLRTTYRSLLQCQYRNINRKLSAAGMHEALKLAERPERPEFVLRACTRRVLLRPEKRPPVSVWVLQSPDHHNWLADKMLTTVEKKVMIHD
Sequence of dopaminergic D3 receptor (P35462 whole entry): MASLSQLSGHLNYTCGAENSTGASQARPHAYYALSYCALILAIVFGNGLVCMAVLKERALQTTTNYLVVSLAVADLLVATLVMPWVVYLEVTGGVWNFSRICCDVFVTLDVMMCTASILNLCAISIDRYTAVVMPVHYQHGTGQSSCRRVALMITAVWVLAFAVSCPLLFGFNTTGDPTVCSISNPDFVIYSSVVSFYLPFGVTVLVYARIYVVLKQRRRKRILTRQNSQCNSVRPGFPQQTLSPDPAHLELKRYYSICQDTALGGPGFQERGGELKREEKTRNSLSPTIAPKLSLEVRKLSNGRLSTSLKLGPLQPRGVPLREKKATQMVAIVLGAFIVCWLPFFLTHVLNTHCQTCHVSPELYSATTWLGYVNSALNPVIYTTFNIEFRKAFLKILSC

O=S(=O)(NCCCN1CCC(c2noc3cc(F)ccc23)CC1)c1ccc(OC(F)(F)F)cc1 [Compound 336, N-[3-[4-(6-Fluoro-1,2-benzoxazol-3-yl)piperidin-1-yl]propyl]-4-(trifluoromethoxy)-benzenesulphonamide]
inhibition at 1 µM [1]: 41%
α1 [%] (adrenergic α1 receptor): 107%
inhibition at 1 µM (dopaminergic D3 receptor): 96%
inhibition at 1 µM [2]: 92%
inhibition at 1 µM [3]: 92%
inhibition at 1 µM (dopaminergic D2 receptor): 97%
inhibition at 1 µM [4]: 61%
inhibition at 1 µM [5]: 100%

N#Cc1ccc(S(=O)(=O)NCCCN2CCC(c3noc4cc(F)ccc34)CC2)cc1 [Compound 337, 4-Cyano-N-[3-[4-(6-fluoro-1,2-benzoxazol-3-yl)piperidin-1-yl]propyl]benzenesulphonamide]
inhibition at 1 µM [1]: 35%
α1 [%] (adrenergic α1 receptor): 93%
inhibition at 1 µM (dopaminergic D3 receptor): 79%
inhibition at 1 µM [2]: 76%
inhibition at 1 µM [3]: 87%
inhibition at 1 µM (dopaminergic D2 receptor): 59%
inhibition at 1 µM [4]: 41%
inhibition at 1 µM [5]: 102%

O=S(=O)(NCCCN1CCC(c2noc3cc(F)ccc23)CC1)c1cccs1 [Compound 339, N-[3-[4-(6-Fluoro-1,2-benzoxazol-3-yl)piperidin-1-yl]propyl]thiophene-2-sulphonamide]
inhibition at 1 µM [1]: 3%
α1 [%] (adrenergic α1 receptor): 108%
inhibition at 1 µM (dopaminergic D3 receptor): 100%
inhibition at 1 µM [2]: 89%
inhibition at 1 µM [3]: 89%
inhibition at 1 µM (dopaminergic D2 receptor): 96%
inhibition at 1 µM [4]: 76%
inhibition at 1 µM [5]: 82%

O=S(=O)(NCCCN1CCC(c2noc3cc(F)ccc23)CC1)c1ccsc1 [Compound 340, N-[3-[4-(6-Fluoro-1,2-benzoxazol-3-yl)piperidin-1-yl]propyl]thiophene-3-sulphonamide]
inhibition at 1 µM [1]: 9%
α1 [%] (adrenergic α1 receptor): 110%
inhibition at 1 µM (dopaminergic D3 receptor): 101%
inhibition at 1 µM [2]: 72%
inhibition at 1 µM [3]: 90%
inhibition at 1 µM (dopaminergic D2 receptor): 101%
inhibition at 1 µM [4]: 45%
inhibition at 1 µM [5]: 104%

Cc1cc(S(=O)(=O)NCCCN2CCC(c3noc4cc(F)ccc34)CC2)c(C)s1 [Compound 342, N-[3-[4-(6-Fluoro-1,2-benzoxazol-3-yl)piperidin-1-yl]propyl]-2,5-dimethyl-thiophene-3-sulphonamide]
inhibition at 1 µM [1]: 26%
α1 [%] (adrenergic α1 receptor): 103%
inhibition at 1 µM (dopaminergic D3 receptor): 99%
inhibition at 1 µM [2]: 100%
inhibition at 1 µM [3]: 96%
inhibition at 1 µM (dopaminergic D2 receptor): 106%
inhibition at 1 µM [4]: 74%
inhibition at 1 µM [5]: 106%

Cn1ccc2c(S(=O)(=O)NCCCN3CCC(c4noc5cc(F)ccc45)CC3)cccc21 [Compound 343, N-[3-[4-(6-Fluoro-1,2-benzoxazol-3-yl)piperidin-1-yl]propyl]-1-methyl-indole-4-sulphonamide]
inhibition at 1 µM [1]: 4%
α1 [%] (adrenergic α1 receptor): 86%
inhibition at 1 µM (dopaminergic D3 receptor): 96%
inhibition at 1 µM [2]: 77%
inhibition at 1 µM [3]: 92%
inhibition at 1 µM (dopaminergic D2 receptor): 101%
inhibition at 1 µM [4]: 32%
inhibition at 1 µM [5]: 105%

Cn1ccc2cc(S(=O)(=O)NCCCN3CCC(c4noc5cc(F)ccc45)CC3)ccc21 [Compound 344, N-[3-[4-(6-Fluoro-1,2-benzoxazol-3-yl)piperidin-1-yl]propyl]-1-methyl-indole-5-sulphonamide]
inhibition at 1 µM [1]: 31%
α1 [%] (adrenergic α1 receptor): 106%
inhibition at 1 µM (dopaminergic D3 receptor): 101%
inhibition at 1 µM [2]: 91%
inhibition at 1 µM [3]: 95%
inhibition at 1 µM (dopaminergic D2 receptor): 107%
inhibition at 1 µM [4]: 42%
inhibition at 1 µM [5]: 105%

O=S(=O)(NCCCN1CCC(c2noc3cc(F)ccc23)CC1)c1cc2ccccc2s1 [Compound 345, N-[3-[4-(6-Fluoro-1,2-benzoxazol-3-yl)piperidin-1-yl]propyl]benzothiophene-2-sulphonamide]
inhibition at 1 µM [1]: -10%
α1 [%] (adrenergic α1 receptor): 102%
inhibition at 1 µM (dopaminergic D3 receptor): 100%
inhibition at 1 µM [2]: 91%
inhibition at 1 µM [3]: 91%
inhibition at 1 µM (dopaminergic D2 receptor): 109%
inhibition at 1 µM [4]: 45%
inhibition at 1 µM [5]: 93%

O=S(=O)(NCCCN1CCC(c2noc3cc(F)ccc23)CC1)c1csc2ccccc12 [Compound 346, N-[3-[4-(6-Fluoro-1,2-benzoxazol-3-yl)piperidin-1-yl]propyl]benzothiophene-3-sulphonamide]
inhibition at 1 µM [1]: 17%
α1 [%] (adrenergic α1 receptor): 103%
inhibition at 1 µM (dopaminergic D3 receptor): 93%
inhibition at 1 µM [2]: 95%
inhibition at 1 µM [3]: 87%
inhibition at 1 µM (dopaminergic D2 receptor): 100%
inhibition at 1 µM [4]: 51%
inhibition at 1 µM [5]: 97%

O=S(=O)(NCCCN1CCC(c2noc3cc(F)ccc23)CC1)c1cc2ccccc2o1 [Compound 349, N-[3-[4-(6-Fluoro-1,2-benzoxazol-3-yl)piperidin-1-yl]propyl]benzofuran-2-sulphonamide]
inhibition at 1 µM [1]: 0%
α1 [%] (adrenergic α1 receptor): 98%
inhibition at 1 µM (dopaminergic D3 receptor): 100%
inhibition at 1 µM [2]: 87%
inhibition at 1 µM [3]: 91%
inhibition at 1 µM (dopaminergic D2 receptor): 93%
inhibition at 1 µM [4]: 49%
inhibition at 1 µM [5]: 108%

O=S(=O)(NCCCN1CCC(c2noc3cc(F)ccc23)CC1)c1ccc2c(c1)CCO2 [Compound 350, N-[3-[4-(6-Fluoro-1,2-benzoxazol-3-yl)piperidin-1-yl]propyl]-2,3-dihydrobenzofuran-5-sulphonamide]
inhibition at 1 µM [1]: -5%
α1 [%] (adrenergic α1 receptor): 102%
inhibition at 1 µM (dopaminergic D3 receptor): 95%
inhibition at 1 µM [2]: 96%
inhibition at 1 µM [3]: 87%
inhibition at 1 µM (dopaminergic D2 receptor): 102%
inhibition at 1 µM [4]: 57%
inhibition at 1 µM [5]: 95%

O=S(=O)(NCCCN1CCC(c2noc3cc(F)ccc23)CC1)c1cccc2scnc12 [Compound 351, N-[3-[4-(6-Fluoro-1,2-benzoxazol-3-yl)piperidin-1-yl]propyl]-1,3-benzothiazole-4-sulphonamide]
inhibition at 1 µM [1]: 31%
α1 [%] (adrenergic α1 receptor): 97%
inhibition at 1 µM (dopaminergic D3 receptor): 103%
inhibition at 1 µM [2]: 89%
inhibition at 1 µM [3]: 94%
inhibition at 1 µM (dopaminergic D2 receptor): 101%
inhibition at 1 µM [4]: 71%
inhibition at 1 µM [5]: 103%

O=c1[nH]c2ccc(S(=O)(=O)NCCCN3CCC(c4noc5cc(F)ccc45)CC3)cc2o1 [Compound 353, N-[3-[4-(6-Fluoro-1,2-benzoxazol-3-yl)piperidin-1-yl]propyl]-2-oxo-3H-1,3-benzoxazole-6-sulphonamide]
inhibition at 1 µM [1]: -1%
α1 [%] (adrenergic α1 receptor): 103%
inhibition at 1 µM (dopaminergic D3 receptor): 97%
inhibition at 1 µM [2]: 58%
inhibition at 1 µM [3]: 83%
inhibition at 1 µM (dopaminergic D2 receptor): 91%
inhibition at 1 µM [4]: 48%
inhibition at 1 µM [5]: 101%

O=S(=O)(NCCCN1CCC(c2noc3cc(F)ccc23)CC1)c1ccc2c(c1)OCO2 [Compound 354, N-[3-[4-(6-Fluoro-1,2-benzoxazol-3-yl)piperidin-1-yl]propyl]-1,3-benzodioxole-5-sulphonamide]
inhibition at 1 µM [1]: 6%
α1 [%] (adrenergic α1 receptor): 103%
inhibition at 1 µM (dopaminergic D3 receptor): 88%
inhibition at 1 µM [2]: 86%
inhibition at 1 µM [3]: 96%
inhibition at 1 µM (dopaminergic D2 receptor): 83%
inhibition at 1 µM [4]: 59%
inhibition at 1 µM [5]: 86%

O=S(=O)(NCCCN1CCC(c2noc3cc(F)ccc23)CC1)c1ccc2c(c1)OCCO2 [Compound 355, N-[3-[4-(6-Fluoro-1,2-benzoxazol-3-yl)piperidin-1-yl]propyl]-2,3-dihydro-1,4-benzodioxine-6-sulphonamide]
inhibition at 1 µM [1]: 45%
α1 [%] (adrenergic α1 receptor): 105%
inhibition at 1 µM (dopaminergic D3 receptor): 97%
inhibition at 1 µM [2]: 75%
inhibition at 1 µM [3]: 84%
inhibition at 1 µM (dopaminergic D2 receptor): 99%
inhibition at 1 µM [4]: 60%
inhibition at 1 µM [5]: 103%

O=S(=O)(NCCCCN1CCN(c2cccc3[nH]ccc23)CC1)c1cccc(C(F)(F)F)c1 [Compound 361, N-[4-[4-(1H-Indol-4-yl)piperazin-1-yl]butyl]-3-(trifluoromethyl)benzenesulphonamide]
inhibition at 1 µM [1]: 6%
α1 [%] (adrenergic α1 receptor): 98%
inhibition at 1 µM (dopaminergic D3 receptor): 98%
inhibition at 1 µM [2]: 70%
inhibition at 1 µM [3]: 86%
inhibition at 1 µM (dopaminergic D2 receptor): 99%
inhibition at 1 µM [4]: 95%
inhibition at 1 µM [5]: 49%

N#Cc1cccc(S(=O)(=O)NCCCCN2CCN(c3cccc4[nH]ccc34)CC2)c1 [Compound 362, 3-Cyano-N-[4-[4-(1H-indol-4-yl)piperazin-1-yl]butyl]benzenesulphonamide]
inhibition at 1 µM [1]: 37%
α1 [%] (adrenergic α1 receptor): 96%
inhibition at 1 µM (dopaminergic D3 receptor): 102%
inhibition at 1 µM [2]: 69%
inhibition at 1 µM [3]: 88%
inhibition at 1 µM (dopaminergic D2 receptor): 101%
inhibition at 1 µM [4]: 91%
inhibition at 1 µM [5]: 41%
